# Reference: US20250312469A1 (CANGET BIOTEKPHARMA, priority 2024, published 2025)
# Marks after values point to notes of the source that are not given here.
# Experiments:
# [1] = Rat toxicology/MTD, non-clinically compatible FL118 HPMC suspension (Covance); details: for % BW Change (Day 4) / BW Change (Day 4) / Mean body weight Day 1 / Mean body weight Day 4: 3.3 mg/kg/dose
# Description: Twenty male and 20 female Hsd: Sprague Dawley®SDR rats were received from Envigo RMS, Inc. (Indianapolis, Indiana). Animals were acclimated to the test facility for 7 days prior to initiation.
# Prior to group assignment, animals were excluded from the selection pool/sex to produce minimal variation. Animals were assigned to the study using a computerized procedure designed to achieve body weight balance with respect to group assignment with the following experimental design.
# Doses were based on the most recently recorded scheduled body weight. Animals were checked twice daily (a.m. and p.m.) for mortality, abnormalities, and signs of pain or distress. Cage-side observations were conducted for each animal once daily during the dosing phase, except on days when detailed observations were conducted. Abnormal findings were recorded. Detailed observations were conducted for each animal once during the pre-dose phase, and on Days 1, 4 and 8 (prior to dosing, as applicable) of the dosing phase. Detailed observations were also collected for each animal on days of scheduled sacrifice (all surviving animals). On each day of dosing, cage-side observations were conducted for each animal approximately 1, 4, and 24 hours postdose. Postdose observations were based on the time dosing was completed for each group/sex. Body weights were recorded once during the pre-dose phase, and on Days 1, 4, and 8 (prior to dosing, as applicable) of the dosing phase. The amount of food consumed by each cage of was recorded Days 1 to 4, Days 4 to 8, and Days 8 to 9. Blood samples for hematology, coagulation, and clinical chemistry were collected from fasted toxicity animals via a jugular vein. Blood samples were collected on the day of scheduled sacrifice. […] The anticoagulants were sodium citrate for coagulation tests and potassium EDTA for hematology tests. Samples for clinical chemistry were collected without anticoagulant.
# On Day 10 of the dosing phase, all surviving animals, having been fasted overnight, were anesthetized via isoflurane inhalation, exsanguinated, and necropsied. Terminal body weights were recorded for animals sacrificed at a scheduled interval. A macroscopic examination of the external features of the carcass; external body orifices; abdominal, thoracic, and cranial cavities; organs; and tissues was performed. Organ weights were recorded at the scheduled sacrifice. Paired organs were weighed together. Bone marrow smears (two slides) were prepared from the femur of each animal.
# Various models of calculators, computers, and computer programs were used to analyze data in this study. Values in some tables (e.g., means, standard deviations, or individual values) may differ slightly from those in other tables, from individually calculated data, or from statistical analysis data, because different models round off or truncate numbers differently. However, neither the integrity nor the interpretation of the data was affected by these differences.
# Data for each sex were analyzed separately; only data collected on or after the first day of dosing were analyzed statistically. Analysis of variance (ANOVA) and pairwise comparisons were used to analyze absolute body weight, Body weight change and continuous clinical pathology values. Levene's test was done to test for equality of variances between groups.
# [2] = Liver microsome stability; details: for microsomal CLint at 0.5 μM / half-life at 0.5 μM: both; for microsomal CLint at 0.5 μM: CLint (intrinsic clearance); for microsomal CLint at 0.5 μM / half-life at 0.5 μM / % Remaining of Initial (n = 1): human liver microsome
# in vivo [3] = details: female, SCID, mouse; for Tmax / half-life: po
# in vivo [4] = details: SCID, mouse, po
# [5] = PK after single i.v. dose in tumor bearing mice
# DDX5 = DDX5 (Homo sapiens, UniProt P17844); assay: Immunoprecipitation/Western blot of DDX5 in Mia Paca-2 and SW620 cells; type: cell-based; set-up: endogenous in cells; Mia Paca-2 and SW620 (IP/Western)
# Description: Up to 10^7 cells for each time point/test were harvested with a scraper in cold PBS buffers and collected by centrifugation at 1000g×5 min and washed with cold PBS once. Cell pellets were lysed in 1 mL cold RIPA lysis buffer containing proteinase inhibitors (refer to Western blots). The cell lysates were precleared with centrifuging 14,000 rpm for 15 min. The resulting supernatants were transferred to a new 1.5 ml tube and incubated with up to 3 μg either DDX5 antibodies or normal IgG antibodies for 1 h at 4° C., followed by incubation with 20-40 μL 50% protein A/G-Agarose slurry overnight at 4° C. on a rocker platform. […]
# For frozen prostate cancer tissue specimens and their adjacent non-tumor tissues (if any) obtained from Roswell Park pathology network, 30-50 mg of each tissue in a 1.5 Eppendorf tube containing 500 μL of 2×SDS lysis buffer containing Tris pH 6.8+4% SDS+10% Glycerol were homogenized through ultrasound treatment for 10-15 second per time with 3-6 times until tumor tissue was lysed. […] Proteins of interest were detected using Western Lightning ECL-Plus (Perkin Elmer, Waltham, MA) and visualized by various times (3-120 seconds) of exposure. Actin, tubulin and/or GAPDH were detected as the internal control to normalize total protein loading for each sample.
# Sequence of DDX5 (P17844 whole entry): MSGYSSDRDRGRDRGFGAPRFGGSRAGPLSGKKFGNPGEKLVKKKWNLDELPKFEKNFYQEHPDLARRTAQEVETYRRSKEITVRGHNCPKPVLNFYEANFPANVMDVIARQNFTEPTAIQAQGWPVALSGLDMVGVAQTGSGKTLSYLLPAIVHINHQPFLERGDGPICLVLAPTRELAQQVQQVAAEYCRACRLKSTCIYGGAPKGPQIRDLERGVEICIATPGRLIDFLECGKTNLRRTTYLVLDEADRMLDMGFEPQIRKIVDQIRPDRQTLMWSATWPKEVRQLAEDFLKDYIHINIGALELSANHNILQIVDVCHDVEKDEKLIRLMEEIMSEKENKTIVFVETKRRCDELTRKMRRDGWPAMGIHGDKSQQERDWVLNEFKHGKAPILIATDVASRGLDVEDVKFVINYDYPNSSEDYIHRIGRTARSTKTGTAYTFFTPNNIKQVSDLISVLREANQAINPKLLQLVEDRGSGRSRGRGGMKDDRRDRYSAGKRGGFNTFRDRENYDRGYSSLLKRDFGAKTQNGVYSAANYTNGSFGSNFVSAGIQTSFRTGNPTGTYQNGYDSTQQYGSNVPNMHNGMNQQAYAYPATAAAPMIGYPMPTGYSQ
structure (smiles),measurement,setting,value
CCC1(O)C(=O)OCc2c1cc1n(c2=O)Cc2cc3cc4c(cc3nc2-1)OCO4 (stereo not shown) [FL118],% BW Change (Day 4),[1]; Female,−14%
same,BW Change (Day 4),[1]; Female,−26* g
same,Mean body weight Day 1,[1]; Female,192 g
same,Mean body weight Day 4,[1]; Female,168* g
same,% BW Change (Day 4),[1]; Male,−12%
same,BW Change (Day 4),[1]; Male,−25* g
same,Mean body weight Day 1,[1]; Male,207 g
same,Mean body weight Day 4,[1]; Male,183* g
same,highest non-severely toxic dose (HNSTD),"[1]; oral, day 1 and day 8",1.65 mg/kg/dose
same,microsomal CLint at 0.5 μM,"[2]; human, microsomes, calculated (in parentheses)",18.6 µL/min/mg
same,microsomal CLint at 0.5 μM,"[2]; human, microsomes, bound",< 23.1 µL/min/mg
same,half-life at 0.5 μM,"[2]; human, microsomes, calculated (in parentheses), calculated half-life longer than the experiment",1.25 h
same,half-life at 0.5 μM,"[2]; human, microsomes, expressed as > the longest incubation time (60 min)",> 1 h
same,% Remaining of Initial (n = 1),[2]; 0 min,100%
same,% Remaining of Initial (n = 1),[2]; 10 min,93%
same,% Remaining of Initial (n = 1),[2]; 20 min,82%
same,% Remaining of Initial (n = 1),[2]; 30 min,76%
same,% Remaining of Initial (n = 1),[2]; 60 min,58%
same,half-life,"[2]; human, microsomes",long half-life
same,Tmax,in vivo [3]; HT29 tumor,1 h
same,half-life,in vivo [3]; HT29 tumor,4.24 h
same,Tmax,in vivo [3]; SW620 tumor,1 h
same,half-life,in vivo [3]; SW620 tumor,2.99 h
same,bioavailability,"in vivo [3]; plasma, oral",84.6%
same,Tmax,in vivo [3]; plasma,0.5 h
same,half-life,in vivo [3]; plasma,5.12 h
same,MTD at 4 weekly doses,in vivo [4],~10 mg/kg
same,Vz,[5]; FaDu tumor,33052 g/kg
same,Vz,[5]; SW620 tumor,30742 g/kg
same,DDX5 phosphorylation on tyrosine,DDX5; 6h,eliminates DDX5 phosphorylation
same,DDX5 protein,DDX5; 24h,inhibits DDX5 proteins
